According to patent publication US20230000924A1, “COMPOSITIONS AND METHODS FOR GENERATION OF SINOATRIAL NODE-LIKE CELLS AND THEIR USE IN DRUG DISCOVERY” (Cornell University, priority 2019, published 2023):
“Also recorded” adds a separate entry of the source.

Assays:
hPSC-SAN cells = assay: Chemical screen and validation for rescue of DOXO toxicity in hPSC-SAN cells; format: cell-based, human
Description: The fold change was calculated by dividing the percentage of cleaved caspase-3^+ cells in GFP^+ or mCherry^+ cells in the DOXO-treated condition by the percentage of cleaved caspase-3^+ cells in GFP^+ or mCherry^+ cells in the DMSO-treated condition (n=10); b, Sensitivity of day 30 hiPSC-SAN cells derived from 48 hiPSC lines upon DOXO treatment. […] The fold change was calculated by dividing the percentage of cleaved caspase-3^+ cells in ISL1^+ cells in the DOXO-treated condition by the percentage of cleaved caspase-3^+ cells in ISL1^+ cells in the DMSO-treated condition. […] Data were normalized to non-DOXO treated cells (n=4). h, Quantification of cell toxicity on hPSC-SAN cells derived from sensitive iPSC lines after co-treatment with DOXO and either 10 μM physcion (n=3) or DMSO (n=4). *p<0.05 **p<0.01. t-test. Data are mean±s.e.m. Data were normalized to non-DOXO treated cells.
Day 35 cells were treated for 3 days with DOXO and small molecules.
1472 compounds were tested consisting of FDA-approved drugs and natural products. Hit targets were selected based on a reduced percent ratio of GFP^+ cleaved caspase-3^+/GFP^+ cells (FIG. 11a). The compounds that decreased the cell death rate by more than two-fold of the standard deviation below the average of DMSO-treated samples were selected as primary hits. […]

murine SAN = assay: Ex vivo murine atrial explants (SAN cell death, contraction rhythmicity)
Description: FIG. 15. […] Quantification of contraction rhythmicity of explants was calculated by the COV as described above.
FIG. 16. […] Quantification of contraction rhythmicity of explants was calculated by the COV as described above.
Thus, we used an ex vivo model to document the direct effect of Doxorubicin and Physcion on the murine SAN. Whole, intact atrial explants were incubated with 1 μM doxorubicin or 1 uM doxorubicin+20 μM Physcion for 3 hrs.

[1] = tested on: A549 human epithelial lung cancer cells; assay: Chemotherapeutic effect on A549 cells in culture; format: cell-based; conditions: 72 hrs
Description: FIG. 17. […] We tested the effects of Physcion and Physcion+Doxorubicin on A549 human epithelial lung cancer cells grown in culture. 5×10^4 cells were treated with varying doses of Doxorubicin and Physcion for 72 hrs.

A549 xenograft tumors = assay: A549 xenograft mouse model; format: in vivo; conditions: IP once a week for two weeks; for tumor burden / growth (tumor wt. and volume), single agent: 4 mg/kg
Description: FIG. 18. […] We tested the effects of Doxorubicin and Physcion using an A549 xenograft mouse model. Mice with A549 xenograft tumors were treated with vehicle, Doxorubicin, Physcion, or Doxorubicin plus Physcion. Doxorubicin and Physcion treatment was administered by IP injection once a week for two weeks, at a concentration of 4 mg/kg wt for both compounds.

[2] = tested on: SHOX2:GFP+ hPSC-SAN cells; assay: DOXO toxicity, cleaved caspase3+ cells, in hPSC-SAN cells; format: cell-based, human; conditions: 0.16 μM DOXO, 3 days, day 35 pacemaker-like cells
Description: (§1) FIG. 4. Pharmacogenetics and drug discovery for doxorubicin-mediated acute cell toxicity using hPSC-SAN cells. a, Relative cell toxicity of hESC-SAN and hESC-V cells upon DOXO treatment based on immunostaining of antibody against cleaved-caspase3. The fold change was calculated by dividing the percentage of cleaved caspase-3^+ cells in GFP^+ or mCherry^+ cells in the DOXO-treated condition by the percentage of cleaved caspase-3^+ cells in GFP^+ or mCherry^+ cells in the DMSO-treated condition (n=10); b, Sensitivity of day 30 hiPSC-SAN cells derived from 48 hiPSC lines upon DOXO treatment. 48 hiPSC lines were differentiated toward SAN-like cells and split into two equal samples, which were treated with 0.16 μM doxorubicin or DMSO for 3 days. The fold change was calculated by dividing the percentage of cleaved caspase-3^+ cells in ISL1^+ cells in the DOXO-treated condition by the percentage of cleaved caspase-3^+ cells in ISL1^+ cells in the DMSO-treated condition. […] Data are mean±s.e.m. Data were normalized to non-DOXO treated cells.

[3] = tested on: SHOX2:GFP-; MHC6:mCherry+ cardiomyocytes; conditions: 0.16 μM DOXO, 3 days, day 35 cardiomyocytes
Description: as §1

[4] = tested on: hPSC-SAN cells differentiated from 48 distinct iPSC lines; assay: DOXO sensitivity of hPSC-SAN cells differentiated from 48 iPSC lines (cleaved caspase-3 / ISL1 staining); format: cell-based, human; conditions: 0.16 μM DOXO, 3 days
Description: FIG. 4. […] Data are mean±s.e.m. Data were normalized to non-DOXO treated cells.
To identify genetic variation that associates with the sensitivity of pacemaker cells to DOXO-induced toxicity, we performed an unbiased screen using a library of hPSC-SAN cells differentiated from 48 distinct iPSC lines. Cells differentiated for 35 days were treated with 0.16 μM DOXO for 3 days. Due to the lack of a robust antibody to SHOX2, an antibody recognizing ISL1 that is co-expressed with SHOX2:GFP (FIG. 2a), was used to identify hPSC-SAN cells that co-stain for cleaved caspase-3, as an assay for cytotoxicity. […] We identified 14 “high-sensitive” iPSC lines that generate hPSC-SAN cells displaying DOXO-induced apoptosis rates greater than 4-fold compared to DMSO-treated cells (FIG. 4b). To test if this platform can be applied toward in vitro pharmacogenomics, the iPSC clones were sequenced at several genomic regions harboring known SNPs associated with increased DOXO-mediated cardiotoxicity, including rs1056892, rs2229774 and rs885004 (in or near the genes CBR3, RARG and SLC28A3, respectively). 10 out of the 14 high-sensitive iPSC lines harbored one of these 3 SNPs (FIG. 4c). All 4 of the lines carrying the risk allele of rs1056892 generated hPSC-SAN cells with more than 4-fold increased toxicity. This is consistent with findings that CBR3 is expressed in heart tissue and functions for drug metabolism.

HCN4+ SAN cells = conditions: mouse, in vivo
Description: FIG. 12. […] Immunofluorescence of intact atria isolated from Doxorubicin (two IP injections of 10 mg/kg at 3 day intervals) treated mice euthanized 9 days after initial treatment. Cell death (caspase 3, green) was analyzed in either myocardial (cTroponin, blue) or SAN tissue (HCN4, red).
FIG. 13. […] Contractions of intact atria isolated from vehicle (left panels) or Doxorubicin (right panels) treated mice (30 sec recordings;) x axis=[…]. […] Quantification of contraction rhythmicity of hearts was calculated by the coefficient of variance (COV)=std dev of peak to peak contraction time/average peak to peak contraction time.
C57BL/6 mice were treated with 20 mg/kg Doxorubicin by intraperitoneal injection.

[5] = cited from earlier work
hESC-SAN cells = assay: Ca2+-flux assay (calcium imaging) in hESC-SAN cells; format: cell-based, human; conditions: 1 μM ivabradine, recordings after 5 min vs baseline
Description: (§2) FIG. 2. Functional characterization of hPSC-SAN cells. a, Immunofluorescent co-staining of GFP with pacemaker-associated transcription factors (ISL1, TBX5 and NKX2.5) and ion channels (HCN4, Cav3.1, Cav1.3 and Cx30.2) in cells differentiated to day 30 or day 60. Scale bar=200 μM. b, qRT-PCR analysis using samples from GFP^+ (G+) or mCherry^+ (Ch+) cells at day 25 or day 45. n=3 independent experiments. Fold-change was normalized to undifferentiated hESC. c, Schematic for co-culture of hESC-derived ANs expressing eYFP-channelrhodopsin-2 with either hPSC-SAN or hESC-V; d, Immunofluorescence (left) and electron microscopy images (right) of hESC-AN and hPSC-SAN after 12 weeks of co-culture. Scale bar: 100 μM and 1 μM, respectively; e, Basal release of catecholamine was analyzed using an ELISA kit for AN alone, AN+hES-SAN and AN+hES-V conditions after 8 weeks of co-culture. n=3 independent experiments. f, Representative image of averaged action potentials recorded from an individual hPSC-SAN (left) and distribution (right) of dV/dtmax, APD30 and APD90 recorded used day 30 cells; g, Quantitative analysis of day 30 hPSC-SAN function in response to 1 μM ivabradine. Fold change in calcium transient amplitude (deltaF/F0) of hPSC-SAN or hESC-V cells before and after treatment with ivabradine (n=22 for hESC-SAN and =17 for hESC-V). *p<0.05 **p<0.01. t-test. Data are mean±s.e.m. […]

[6] = tested on: hESC-derived ventricular myocytes (hESC-V); assay: Ca2+-flux assay (calcium imaging) in hESC-derived ventricular myocytes; format: cell-based, human; conditions: cardiomyocyte (hESC-V) cultures, 1 μM ivabradine, recordings after 5 min vs baseline
Description: as §2

SHOX2:GFP+ cells = assay: Epigenetic library screen for SHOX2:GFP+ cells; format: cell-based, human; conditions: condition 8, compound added at day 7, after 14 days of differentiation
Description: To quantify and purify SAN-like cells using this directed differentiation protocol, a dual knock-in SHOX2:GFP; MYH6:mCherry reporter line was created using CRISPR/Cas-based gene-targeting techniques (FIG. 6b). Immunofluorescence and FACS analyses confirmed the success of the protocol for generating putative hPSC-SAN cells, as condition 8 maximizes generation of SHOX2:GFP^+ cells (FIG. 1c, d). The sorted GFP^+ cells were enriched approximately 4000-fold for SHOX2 transcript levels compared to GFP^− cells (FIG. 1e), and most of the GFP^+ cells co-express ISL1 and HCN4, proteins closely associated with the development and function of SAN cells (FIG. 6b). To further enhance production of GFP^+ cells, we considered that SAN development may also be controlled epigenetically and performed an unbiased screen using a library of known epigenetic modulatory compounds. Cells were differentiated using condition 8 with compounds added at day 7 (FIG. 1f and FIG. 6c).
Pacemaker and cardiomyocyte induction. Differentiation was initiated 72 hours after plating when the culture was approximately 80% confluent. Step 1: Cells were differentiated with 1.5 μM CHIR99021 (CHIR, Stem-RD, Ch), 20 ng/mL BMP4 (B) and 20 ng/mL Activin A (AA) in RPMI (Cellgro) supplemented with B27 minus insulin, 2 mM GlutaMAX, 1× NEAA and 1× Pen/Strep for 3 days (RB27-INS). […]

[7] = 1 uM doxorubicin+20 μM Physcion, 3 hrs

Compound: COc1cc(O)c2c(c1)C(=O)c1cc(C)cc(O)c1C2=O [Physcion, physcion]
- effective dose to rescue DOXO-induced cell toxicity (hPSC-SAN cells; hPSC-SAN cells, 0.16 μM DOXO, 3 days): 10 to 20 µM
- toxicity levels in hPSC-SAN cells from sensitive iPSC lines (hPSC-SAN cells; three most sensitive iPSC lines, DOXO with 10 μM Physcion vs without): significant decrease in toxicity levels
- doxorubicin-induced SAN cell death of explants (murine SAN; [7]): blocks
- doxorubicin-induced arrhythmic contractility of explants (murine SAN; [7]): blocks
- contraction rhythmicity of explants (COV) (murine SAN; 1.5 μM Doxorubicin+20 μM Physcion): regained rhythmic contractions with minimal variance in periods between contractions
- chemotherapeutic effects of Physcion alone [1]: does not exhibit chemotherapeutic effects
- effect on chemotoxic effects of Doxorubicin ([1]; Physcion as high as 50 μM, varying doses of Doxorubicin): did not block; also recorded: did not inhibit
- tumor burden / growth (tumor wt. and volume), single agent (A549 xenograft tumors): did not affect tumor growth
- effect on chemotherapeutic effects of Doxorubicin in vivo (A549 xenograft tumors; Physcion plus Doxorubicin, 4 mg/kg each): did not block; also recorded: did not inhibit the chemotherapeutic effects of Doxorubicin

Compound: COc1cccc2c1C(=O)c1c(O)c3c(c(O)c1C2=O)C[C@@](O)(C(=O)CO)C[C@@H]3O[C@H]1C[C@H](N)[C@H](O)[C@H](C)O1 [Doxorubicin]
- cytotoxicity (percentage of cleaved caspase3+ cells) [2]: significant cytotoxicity
- cell death (percentage of cleaved caspase3+ cells) [3]: no significant increase in cell death
- DOXO-induced apoptosis rate compared to DMSO-treated cells ([4]; 14 high-sensitive iPSC lines): greater than 4 fold
- increased toxicity ([4]; all 4 lines carrying the risk allele of rs1056892): greater than 4 fold
- percentage of cleaved caspase3+ ISL1 cells following DOXO ([4]; hPSC-SAN cells from all 48 iPSC lines): at least some increase
- variance in the time between contractions (coefficient of variance, COV) (HCN4+ SAN cells): significantly higher variance in the time between contractions
- SAN cell death in atrial explants (murine SAN; 1 μM doxorubicin, 3 hrs): localized SAN cell death
- contractility of atrial explants (murine SAN; 1 μM doxorubicin, 3 hrs): irregular contractility
- contraction rhythmicity of explants (COV) (murine SAN; 1.5 μM Doxorubicin): irregular contractions marked by significantly higher variance in the time between contractions
- tumor burden / growth (tumor wt. and volume), single agent (A549 xenograft tumors): reduction in tumor wt. and volume
- sub-clinical systolic dysfunction ([5]; of treated patients): ~40%
- DOXO-induced cardiomyopathy ([5]; treated patients): 10-20%

Compound: COc1cc2c(cc1OC)CC(=O)N(CCCN(C)C[C@H]1Cc3cc(OC)c(OC)cc31)CC2 [ivabradine, Ivabradine]
- contractions and calcium activity (hESC-SAN cells): significant reduction
- contractions and calcium activity [6]: no significant difference

Compound: Nc1cc(F)ccc1NC(=O)c1ccc(CNC(=O)/C=C/c2cccnc2)cc1 [chidamide]
- percentage of GFP+ cells (SHOX2:GFP+ cells): ~50%
